Laboratory results taken from patent US4416885A, “Use of isopropylaminopyrimidine in the chemotherapy of muscular dystrophy, myopathy and myotonia” (priority 1982, dated 1983).

What was measured:
Format in all cases: in vivo, chicken
normal chickens 412 = experiment: Experiment 4, weight of normal chickens injected with IAPP; conditions: 50 mg/Kg
Method: All chickens were injected with 50 mg/Kg IAPP and weighed approximately every second or third day.
A: Control-injected with PBS
B, C, D: Experimental-injected with 50 mg/Kg IAPP

[1] = test system: dystrophic New Hampshire chickens, line 413; experiment: Toxicity (weight change, other symptoms) in dystrophic chickens
[2] = test system: dystrophic 413 muscle explants; experiment: Microtubule complexes in muscle explants of injected dystrophic chickens
Text: Essentially, these experiments were divided into three subgroups, taken from the previous Table:
413A, 413B, 412A, 412B: All were sacrificed after 4 injections and muscle explants placed in culture.
413C, 412C: All were sacrificed after 8 injections and muscle explants were placed in culture.
413D, 412D: All were sacrificed after 10 injections and muscle explants placed in culture.
All explants were placed in CMRL culture medium containing 5% horse serum, 15% fetal bovine serum and 1% antibiotics and allowed to grow for 5-7 days before being fixed and observed for the presence or absence of microtubules. No IAPP was added to the culture medium during the 5-7 days in culture.

[3] = test system: plasma AChE (acetylcholinesterase); experiment: Plasma AChE; design: AChE: unit not given here
Method: (§1) Chemotherapy was assessed by application of seven different parameters: physical tests of muscular disability, namely the flip test and wing apposition (W.A.) measurements; biochemical assays of serum and muscle enzume levels of creatine phosphokinase (CPK), pyruvate kinase (PK) and acetylcholinesterase (AChE); and histological comparisons of treated and untreated muscle. Toxicity studies (weight loss, etc.) were also used. A very comprehensive profile of the drug was thus obtained which related to all the known, highly characteristic features of the disease which are applicable to both the animal model and the human.
The elevation of this enzyme in the dystrophic chicken occurs from 8 days and reaches a plateau at 100 days, compared to the normal animal where the levels continue to decline slowly. […]
(§2) Finally, oral therapy with IAPP was undertaken at gradually increasing dosages up to 1 g/Kg/day. The parameters (physical, biochemical and histological) measured previously were again used to test the efficacy of the drug; five different dosages were used orally, each being given for 30-60 days, daily (Tables VII-XI). A total of 75 animals were treated in the current study with IAPP and 70 control animals were used.

[4] = test system: plasma PK (pyruvate kinase); experiment: Plasma PK
Method: as §1
A massive rise in this enzyme level also occurs in the dystrophic chicken compared to the normal control, as it does in the human disease.
The drug was administered daily in water, injected intra-peritoneally, the amount being adjusted on a weekly basis according to the animal's weight.
as §2

[5] = 200 mg/Kg i.p. daily for 30 days, day 45 ex ovo
[6] = 200 mg/Kg i.p. daily for 30 days, day 84 ex ovo
[7] = 300 mg/Kg i.p. daily for 30 days, day 45 ex ovo
[8] = 300 mg/Kg i.p. three times weekly for 30 days, day 45 ex ovo
[9] = 300 mg/Kg i.p. three times weekly for 30 days, day 84 ex ovo
[10] = Exp. 2, 40 mg/Kg i.p. daily, day 42-48
[11] = Table VII, oral 200 mg/Kg, 60 days, day 35 ex ovo
[12] = oral 450 mg/Kg daily for 45 days, day 28 ex ovo
[13] = oral 600 mg/Kg daily, day 28 ex ovo
[14] = oral 1 g/Kg daily, day 35 ex ovo
[15] = 200 mg/Kg i.p. daily for 30 days, day 28 ex ovo
[16] = 200 mg/Kg i.p. daily for 30 days, day 56 ex ovo
[17] = 300 mg/Kg i.p. daily for 30 days, day 28 ex ovo
[18] = 300 mg/Kg i.p. daily for 30 days, day 56 ex ovo
[19] = 300 mg/Kg i.p. daily for 30 days, day 84 ex ovo
[20] = Table VII, oral 200 mg/Kg, 60 days, day 28 ex ovo
[21] = oral 300 mg/Kg daily, day 28 ex ovo
[22] = oral 300 mg/Kg daily, day 35 ex ovo
[23] = oral 450 mg/Kg daily for 45 days, day 35 ex ovo
[24] = oral 450 mg/Kg daily for 45 days, day 50 ex ovo
[25] = oral 600 mg/Kg daily, day 35 ex ovo
[26] = oral 600 mg/Kg daily, day 50 ex ovo
[27] = oral 1 g/Kg daily, day 28 ex ovo

SMILES: CC(C)Nc1ncccn1.O=P(O)(O)O [IAPP, 2-isopropylaminopyrimidine orthophosphate]
- Weight (normal chickens 412; Exp. 4, 412B, day 1): 51.3 GRAMS
- Weight (normal chickens 412; Exp. 4, 412B, day 4): 55.8 GRAMS
- Weight (normal chickens 412; Exp. 4, 412B, day 7): 67.6 GRAMS
- Weight (normal chickens 412; Exp. 4, 412B, day 9): 68.1 GRAMS
- Weight (normal chickens 412; Exp. 4, 412C, day 1): 50.8 GRAMS
- Weight (normal chickens 412; Exp. 4, 412C, day 4): 59.9 GRAMS
- Weight (normal chickens 412; Exp. 4, 412C, day 7): 67.8 GRAMS
- Weight (normal chickens 412; Exp. 4, 412C, day 9): 67.7 GRAMS
- Weight (normal chickens 412; Exp. 4, 412C, day 11): 76.4 GRAMS
- Weight (normal chickens 412; Exp. 4, 412C, day 14): 111.8 GRAMS
- Weight (normal chickens 412; Exp. 4, 412C, day 16): 139.0 GRAMS
- Weight (normal chickens 412; Exp. 4, 412C, day 17): 150.2 GRAMS
- Weight (normal chickens 412; Exp. 4, 412D, day 1): 52.6 GRAMS
- Weight (normal chickens 412; Exp. 4, 412D, day 4): 60.5 GRAMS
- Weight (normal chickens 412; Exp. 4, 412D, day 7): 67.7 GRAMS
- Weight (normal chickens 412; Exp. 4, 412D, day 9): 67.7 GRAMS
- Weight (normal chickens 412; Exp. 4, 412D, day 11): 76.6 GRAMS
- Weight (normal chickens 412; Exp. 4, 412D, day 14): 112.8 GRAMS
- Weight (normal chickens 412; Exp. 4, 412D, day 16): 139.6 GRAMS
- Weight (normal chickens 412; Exp. 4, 412D, day 20): 191.5 GRAMS
- Weight (normal chickens 412; Exp. 4, 412D, day 22): 246.4 GRAMS
- Weight (normal chickens 412; Exp. 4, 412D, day 25): 273.4 GRAMS
- Maximum Weight Loss ([1]; 300 mg/Kg i.p. three times weekly for 30 days): 17%
- Weight loss / toxic symptoms ([1]; initial single injection 50 mg/Kg, over 7 days): no weight loss over 7 days, nor any other toxic symptoms
- Maximum Weight Loss ([1]; oral 600 mg/Kg daily): 4%
- Maximum weight loss, reduction from control values ([1]; oral therapy, all doses): 7%
- % Full Complexes Microtubules ([2]; 413B, Subgroup A, after 4 injections of 50 mg/Kg, 413A control 31%): 58%
- % Full Complexes Microtubules ([2]; 413C, Subgroup B, after 8 injections of 50 mg/Kg): 60%
- % Full Complexes Microtubules ([2]; 413D, Subgroup C, after 10 injections of 50 mg/Kg): 74%
- AChE [3, 5]: 60.4
- AChE, % change from control [3, 5]: -29%
- AChE [3, 6]: 87
- AChE, % change from control [3, 6]: -46%
- AChE [3, 7]: 48.4
- AChE, % change from control [3, 7]: -43%
- AChE [3, 8]: 62.9
- AChE, % change from control [3, 8]: -27%
- AChE [3, 9]: 90
- AChE, % change from control [3, 9]: -45%
- % AChE Change vs untreated dystrophic controls [3, 10]: -55%
- AChE [3, 11]: 77.8
- AChE, % change from control [3, 11]: -6%
- AChE [3, 12]: 520
- AChE, % change from control [3, 12]: -12%
- AChE [3, 13]: 46.9
- AChE, % change from control [3, 13]: -21%
- AChE [3, 14]: 53.9
- AChE, % change from control [3, 14]: -47%
- PK [4, 15]: 377
- PK, % change from control [4, 15]: -47%
- PK [4, 16]: 1612
- PK, % change from control [4, 16]: -45%
- PK [4, 6]: 2949
- PK, % change from control [4, 6]: -36%
- PK [4, 17]: 429
- PK, % change from control [4, 17]: -40%
- PK [4, 18]: 2447
- PK, % change from control [4, 18]: -16%
- PK [4, 19]: 5282
- PK, % change from control [4, 19]: +15%
- PK, % change from control ([4]; 300 mg/Kg i.p. three times weekly for 30 days, day 28 ex ovo): -30%
- PK ([4]; 300 mg/Kg i.p. three times weekly for 30 days, day 56 ex ovo): 2486
- PK [4, 9]: 3766
- PK, % change from control [4, 9]: -18%
- % PK Change vs untreated dystrophic controls ([4]; Exp. 2, 40 mg/Kg i.p. daily, day 14-20): -38%
- % PK Change vs untreated dystrophic controls ([4]; Exp. 2, 40 mg/Kg i.p. daily, day 21-27): -57%
- % PK Change vs untreated dystrophic controls ([4]; Exp. 2, 40 mg/Kg i.p. daily, day 28-34): -60%
- % PK Change vs untreated dystrophic controls ([4]; Exp. 2, 40 mg/Kg i.p. daily, day 35-41): -48%
- % PK Change vs untreated dystrophic controls [4, 10]: -58%
- % PK Change vs untreated dystrophic controls ([4]; Exp. 2, 40 mg/Kg i.p. daily, day 56-62): -42%
- % PK Change vs untreated dystrophic controls ([4]; Exp. 2, 40 mg/Kg i.p. daily, day 63-71): -41%
- % PK Change vs untreated dystrophic controls ([4]; Exp. 3, 70 mg/Kg i.p. daily, day 21-27): -32%
- % PK Change vs untreated dystrophic controls ([4]; Exp. 3, 70 mg/Kg i.p. daily, day 28-34): -65%
- PK [4, 20]: 1925
- PK, % change from control [4, 20]: -4%
- PK [4, 11]: 2150
- PK, % change from control [4, 11]: +6%
- PK [4, 21]: 2010
- PK, % change from control [4, 21]: +1%
- PK [4, 22]: 907
- PK, % change from control [4, 22]: +28%
- PK [4, 23]: 2520
- PK, % change from control [4, 23]: +0.6%
- PK [4, 24]: 3891
- PK, % change from control [4, 24]: +7%
- PK [4, 25]: 1639
- PK, % change from control [4, 25]: -36%
- PK [4, 26]: 2824
- PK, % change from control [4, 26]: -22%
- PK [4, 27]: 1080
- PK, % change from control [4, 27]: -48%
- PK [4, 14]: 1812
- PK, % change from control [4, 14]: -50%
